Results: US5686441A, “Penam sulfones as β-lactamase inhibitors” (Syphar Laboratories, Inc., priority 1995, dated 1997)
Values after ≈ are worked out from the molar mass of the structure shown. Where a name gives a salt, the structure may show the parent alone. Read-outs that look alike come from different tables or passages of the source.

Experiments:
P. aeruginosa 46220 DR-2 = assay: MIC, agar dilution method; details: Pseudomonas aeruginosa, 46220DR2, 18 h, read-out: MIC Ceftazidime (Alone)
E. cloacae 40011 = assay: MIC, agar dilution method; details: Enterobacter cloacae, 40011, 18 h
E. coli TEM 7 = assay: MIC, agar dilution method; details: Escherichia coli, TEM7, 18 h
E. aerogenes 41003 = assay: MIC, agar dilution method; details: Klebsiella aerogenes, 41003, 18 h, read-out: MIC Ceftazidime (Alone)
E. cloacae P99 = assay: MIC, agar dilution method; details: Enterobacter cloacae, P99, 18 h
P. aeruginosa L 46003 = assay: MIC, agar dilution method; details: Pseudomonas aeruginosa, L46003, 18 h, read-out: MIC Ceftazidime (Alone)
M. morganii 36010 = assay: MIC, agar dilution method; details: Morganella morganii, 36010, 18 h
K. pneumoniae CTX1 = assay: MIC, agar dilution method; details: Klebsiella pneumoniae, CTX1, 18 h
E. cloacae E. 40009 = assay: MIC, agar dilution method; details: Enterobacter cloacae, E.40009, 18 h, read-out: MIC Ceftazidime (Alone)
E. aerogenes 41006 = assay: MIC, agar dilution method; details: Klebsiella aerogenes, 41006, 18 h, read-out: MIC Ceftazidime (Alone)
E. coli TEM 3 = assay: MIC, agar dilution method; details: Escherichia coli, TEM3, 18 h
E. aerogenes 41004 = assay: MIC, agar dilution method; details: Klebsiella aerogenes, 41004, 18 h
M. morganii 36014 = assay: MIC, agar dilution method; details: Morganella morganii, 36014, 18 h
cephalosporinase = target: T1, cephalosporinase (Pseudomonas aeruginosa, UniProt P24735); assay: β-lactamase inhibitory activity, spectrophotometric rate assay with nitrocefin; type: biochemical; details: cephalosporinase isolated from P. aeruginoase 46012; nitrocefin substrate; read-out: 50% Inhibitory conc. Cephalosporinase
T1 construct: nitrocefin spectrophotometric assay
T1 sequence (P24735 27-397): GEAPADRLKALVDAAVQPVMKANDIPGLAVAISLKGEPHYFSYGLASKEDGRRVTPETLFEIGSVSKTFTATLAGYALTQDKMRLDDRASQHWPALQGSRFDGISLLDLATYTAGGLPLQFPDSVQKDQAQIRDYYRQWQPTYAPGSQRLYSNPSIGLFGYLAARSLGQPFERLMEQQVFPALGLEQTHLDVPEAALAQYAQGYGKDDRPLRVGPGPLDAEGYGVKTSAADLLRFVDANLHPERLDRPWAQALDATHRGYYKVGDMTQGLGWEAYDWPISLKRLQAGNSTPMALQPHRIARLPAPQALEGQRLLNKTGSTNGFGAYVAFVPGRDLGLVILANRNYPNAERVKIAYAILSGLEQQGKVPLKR
Procedure: (§1) The inhibitory activities of present compounds against TEM-1 (isolated from E. coli), CTX-1 (isolated from K. pneumoniae), cephalosporinase (isolated from P. aeruginoase 46012) was measured by spectrophotometric rate assay using […] and using nitrocefin as a substrate [J. Antimicrob. Chemother., 28, pp. 775-776 (1991)].

TEM-1 = target: T2, TEM-1 (Escherichia coli, UniProt P62593); assay: as above; type: biochemical; details: TEM-1 isolated from E. coli; nitrocefin substrate; read-out: 50% Inhibitory conc. TEM-1
T2 construct: TEM-1 (isolated from E. coli); endogenous in cells; host or cells: E. coli (enzyme isolated from the bacterium)
T2 sequence (P62593 24-286 limits assumed): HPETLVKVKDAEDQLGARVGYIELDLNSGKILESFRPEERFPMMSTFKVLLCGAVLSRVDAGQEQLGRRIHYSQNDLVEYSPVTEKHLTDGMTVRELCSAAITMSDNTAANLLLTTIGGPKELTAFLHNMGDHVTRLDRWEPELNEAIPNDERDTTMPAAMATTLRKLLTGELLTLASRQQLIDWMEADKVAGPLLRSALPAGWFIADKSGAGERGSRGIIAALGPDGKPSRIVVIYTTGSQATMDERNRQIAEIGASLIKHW
Procedure: as §1

E. coli OXA 1 = assay: MIC, agar dilution method; details: Escherichia coli, OXA1, 18 h, read-out: MIC Piperacillin Alone
S. aureus 1628 = assay: MIC, agar dilution method; details: Staphylococcus aureus, 1628, 18 h, read-out: MIC Piperacillin Alone
E. cloacae 40015 = assay: MIC, agar dilution method; details: Enterobacter cloacae, 40015, 18 h, read-out: MIC Piperacillin Alone
E. coli SHV 1 = assay: MIC, agar dilution method; details: Escherichia coli, SHV1, 18 h, read-out: MIC Piperacillin Alone
S. aureus 54K = assay: MIC, agar dilution method; details: Staphylococcus aureus, 18 h, read-out: MIC Piperacillin Alone
P. vulgaris CT106 = assay: MIC, agar dilution method; details: Proteus vulgaris, CT106, 18 h, read-out: MIC Piperacillin Alone
S. marcescens 200L = assay: MIC, agar dilution method; details: Serratia marcescens, 18 h, read-out: MIC Piperacillin Alone
E. coli TEM 1 = assay: MIC, agar dilution method; details: Escherichia coli, TEM1, 18 h, read-out: MIC Piperacillin Alone
S. aureus 80K = assay: MIC, agar dilution method; details: Staphylococcus aureus, 18 h, read-out: MIC Piperacillin Alone
E. coli OXA 3 = assay: MIC, agar dilution method; details: Escherichia coli, OXA3, 18 h, read-out: MIC Piperacillin Alone
K. pneumoniae 336L = assay: MIC, agar dilution method; details: Klebsiella pneumoniae, 18 h, read-out: MIC Piperacillin Alone
A. calcoaceticus 553L = assay: MIC, agar dilution method; details: Acinetobacter calcoaceticus, 18 h, read-out: MIC Piperacillin Alone
E. aerogenes = assay: MIC, agar dilution method; details: Klebsiella aerogenes, 18 h, read-out: MIC Piperacillin Alone
E. cloacae E. 4009 = assay: MIC, agar dilution method; details: Enterobacter cloacae, E.4009, 18 h, read-out: MIC Piperacillin Alone
P. aeruginosa L 46007 = assay: MIC, agar dilution method; details: Pseudomonas aeruginosa, L46007, 18 h, read-out: MIC Piperacillin Alone
C. freundii 2046E = assay: MIC, agar dilution method; details: Citrobacter freundii, 18 h, read-out: MIC Piperacillin Alone
[1] = read-out: MIC Ceftazidime (Alone)
[2] = read-out: MIC Piperacillin Alone

`CC(C)(O/N=C(\C(=O)N[C@@H]1C(=O)N2C(C(=O)[O-])=C(C[n+]3ccccc3)CS[C@H]12)c1csc(N)n1)C(=O)O` [Ceftazidime, ceftazidime] was tested, and the MIC (P. aeruginosa 46220 DR-2) was 25 µg/mL (≈ 45.7 µM), the MIC (E. cloacae 40011; [1]) was 50 µg/mL (≈ 91.5 µM) and the MIC (E. coli TEM 7; [1]) was 25 µg/mL (≈ 45.7 µM). For the same molecule, the MIC (E. aerogenes 41003) was 25 µg/mL (≈ 45.7 µM), the MIC (E. cloacae P99; [1]) was 100 µg/mL (≈ 183 µM) and the MIC (P. aeruginosa L 46003) was 200 µg/mL (≈ 366 µM). For the same molecule, the MIC (M. morganii 36010; [1]) was 200 µg/mL (≈ 366 µM), the MIC (K. pneumoniae CTX1; [1]) was 100 µg/mL (≈ 183 µM) and the MIC (E. cloacae E. 40009) was 100 µg/mL (≈ 183 µM). For the same molecule, the MIC (E. aerogenes 41006) was 100 µg/mL (≈ 183 µM), the MIC (E. coli TEM 3; [1]) was 25 µg/mL (≈ 45.7 µM) and the MIC (E. aerogenes 41004; [1]) was 25 µg/mL (≈ 45.7 µM). It also gave an MIC (M. morganii 36014; [1]) of 25 µg/mL (≈ 45.7 µM).
`CON=C[C@@]1(C)[C@H](C(=O)O)N2C(=O)C[C@H]2S1(=O)=O` [Compound 3, sodium (2S, 3R, 5R)-3-formyl-3-methyl-7-oxo-4-thia-1-azabicyclo[3.2.0]heptane-2-carboxylate, 3^1-(O-methyloxime), 4,4-dioxide] gave an IC50 (cephalosporinase) of 1900 nM and an IC50 (TEM-1) of 300 nM.
`C[C@]1(C=NO)[C@H](C(=O)O)N2C(=O)C[C@H]2S1(=O)=O` [Compound 5, sodium (2S, 3R, 5R)-3-formyl-3-methyl-7-oxo-4-thia-1-azabicyclo[3.2.0]heptane-2-carboxylate, 3^1-(hydroxyloxime), 4,4-dioxide] was tested, and the IC50 (cephalosporinase) was 7000 nM and the IC50 (TEM-1) was 580 nM.
Molecule `CCCON=C[C@@]1(C)[C@H](C(=O)O)N2C(=O)C[C@H]2S1(=O)=O` [Compound 8, sodium (2S, 3R, 5R)-3-formyl-3-methyl-7-oxo-4-thia-1-azabicyclo[3.2.0]heptane-2-carboxylate, 3^1-(O-propyloxime), 4,4-dioxide] has an IC50 (cephalosporinase) of 1000 nM and an IC50 (TEM-1) of 100 nM.
`CCON=C[C@@]1(C)[C@H](C(=O)O)N2C(=O)C[C@H]2S1(=O)=O` [Compound 10, sodium (2S, 3R, 5R]-3-formyl-3-methyl-7-oxo-4-thia-1-azabicyclo[3.2.0]heptane-2-carboxylate, 3^1-(O-ethyloxime), 4,4-dioxide] gave an IC50 (cephalosporinase) of 1000 nM and an IC50 (TEM-1) of 500 nM.
For `C[C@]1(C=NOCC(=O)O)[C@H](C(=O)O)N2C(=O)C[C@H]2S1(=O)=O` [Compound 28, (2S, 3R, 5R)-3-formyl-3-methyl-7-oxo-4-thia-1-azabicyclo[3.2.0]heptane-2-carboxylicacid, 3^1-[O-(carboxymethyl)oxime], disodium salt, 4,4-dioxide], the IC50 (cephalosporinase) was 1000 nM and the IC50 (TEM-1) was 4.8 nM.
For `CC(=O)NN=C[C@@]1(C)[C@H](C(=O)O)N2C(=O)C[C@H]2S1(=O)=O` [Compound 38, sodium (2S, 3R, 5R)-3-formyl-3-methyl-7-oxo-4-thia-1-azabicyclo[3.2.0]heptane-2-carboxylate, 3^1-(acetylhydrazone), 4,4-dioxide], the IC50 (cephalosporinase) was 600 nM and the IC50 (TEM-1) was 1.4 nM.
`CCN1CCN(C(=O)N[C@@H](C(=O)N[C@@H]2C(=O)N3[C@@H]2SC(C)(C)[C@@H]3C(=O)O)c2ccccc2)C(=O)C1=O` [Piperacillin, piperacillin] showed an MIC (E. coli OXA 1) of 25 µg/mL (≈ 48.3 µM), an MIC (S. aureus 1628) of 400 µg/mL (≈ 773 µM) and an MIC (E. cloacae 40011; [2]) of 50 µg/mL (≈ 96.6 µM). The MIC (E. coli TEM 7; [2]) was 100 µg/mL (≈ 193 µM), the MIC (E. cloacae 40015) was 50 µg/mL (≈ 96.6 µM) and the MIC (E. coli SHV 1) was 50 µg/mL (≈ 96.6 µM). The MIC (S. aureus 54K) was 12.5 µg/mL (≈ 24.2 µM), the MIC (P. vulgaris CT106) was 400 µg/mL (≈ 773 µM) and the MIC (E. cloacae P99; [2]) was 200 µg/mL (≈ 386 µM). It also gave an MIC (S. marcescens 200L) of 100 µg/mL (≈ 193 µM), an MIC (E. coli TEM 1) of 400 µg/mL (≈ 773 µM) and an MIC (M. morganii 36010; [2]) of 200 µg/mL (≈ 386 µM). The MIC (S. aureus 80K) was 12.5 µg/mL (≈ 24.2 µM), the MIC (E. coli OXA 3) was 3.13 µg/mL (≈ 6.05 µM) and the MIC (K. pneumoniae 336L) was 200 µg/mL (≈ 386 µM). For the same molecule, the MIC (A. calcoaceticus 553L) was over 400 µg/mL, the MIC (K. pneumoniae CTX1; [2]) was over 40 µg/mL and the MIC (E. coli TEM 3; [2]) was 100 µg/mL (≈ 193 µM). The MIC (E. aerogenes) was 25 µg/mL (≈ 48.3 µM), the MIC (E. aerogenes 41004; [2]) was 25 µg/mL (≈ 48.3 µM) and the MIC (M. morganii 36014; [2]) was 50 µg/mL (≈ 96.6 µM). The MIC (E. cloacae E. 4009) was 100 µg/mL (≈ 193 µM), the MIC (P. aeruginosa L 46007) was 100 µg/mL (≈ 193 µM) and the MIC (C. freundii 2046E) was 100 µg/mL (≈ 193 µM).
